Results from patent publication US10314847B2, “Scalarane sesterterpenoid, pharmaceutical composition and topoisomerase II and Hsp90 inhibitor for treating cancer, and use and preparation method thereof” (NATIONAL DONG HWA UNIVERSITY, priority 2017, dated 2019).

Assays:
Molt 4 = tested on: Molt 4
Description: The cell lines were obtained from the American Type Culture Collection (ATCC, Manassas, Va., U.S.A.) or the Japanese Collection of Research Biosources (JCRB) Cell Bank (Japan). […] Antibodies against XIAP, NFκB (p65), GADD, CDK 4, HSF 1, ATF 6 and β-tubulin were obtained from Santa Cruz Biotechnology (Santa Cruz, Calif., U.S.A.). The Hybond ECL transfer membrane and ECL Western blotting detection kits were obtained from Amersham Life Sciences (Amersham, U.K.).
Several cancer cell lines including leukemia K562, Molt 4, and HL 60 cells, prostate cancer LNCaP cells, colon cancer DLD-1 cells and breast cancer T-47D cells were used to evaluate the antiproliferative activity (referring to Table 2).
(§1) It is known that mitochondria are critical intracellular loci of ROS production and ROS exposure can lead to the […] opening. The antioxidant, microsomal GST1, in the inner mitochondrial membrane can interact with the mitochondrial permeability transition (MPT) regulator proteins, such as ANT and/or CypD, to form a MPT pore contributing to mitochondria-mediated cell death. In addition, mitochondrial homeostasis of tumor cells is regulated by an organelle-specific Hsp90 chaperone network.

human topoisomerase II = target: T1, human topoisomerase II (Homo sapiens, UniProt P11388); test: Assay of topoisomerase II catalytic inhibitors and poisons (cell-free pHOT1 DNA relaxation/cleavage); type: biochemical; details: cell-free system; read-out: Topo II activity IC50 (converted)
T1 construct: purchased Topogen
Method: Assay of Topoisomerase II Catalytic Inhibitors and Poisons:
Reactions were terminated by adding 2 μL of 10% SDS to facilitate trapping the enzyme in a cleavage complex, followed by the addition of 2.5 μL of proteinase K (50 μg/mL) to digest the bound protein (incubated at 37° C. for 15 minutes) and finally by adding 0.1 volume of the sample loading dye. The DNA products were analyzed via electrophoresis through vertical 2% agarose gels at 2 voltage/cm in 0.5×TAE buffer. Gels were stained with ethidium bromide (EtBr) and photographed using an Eagle Eye II system (Stratagene, La Jolla, Calif., U.S.A.). The quantitative analysis of the DNA Topo II activity was performed.

γH2AX = test: Western blot of γH2AX expression in Molt 4 cells; type: cell-based, human; details: Molt 4 cells, 0.0625, 0.125 and 0.25 μg/mL, 24 hours
Method: Protein expression was analyzed with Western blotting. GAPDH was used as the loading control.
In order to confirm whether the DNA damage-induced by the marine terpenoids of the present invention involved the inhibition of Topo II activity, a cell-free DNA cleavage assay using an enzyme-mediated negatively supercoiled pHOT1 plasmid DNA was applied. […] These marine terpenoids suppressed Topo II activity, resulting in the inhibition of supercoiled DNA relaxation in a dose-dependent manner (FIG. 2(A)). […] To determine whether the apoptotic mechanism of compounds 1 to 3 affects γH2AX (as a biomarker of DNA damage) induction, Western blot analysis was employed to examine the activation of γH2AX.

Molt 4 cells [1] = test: JC-1 staining, mitochondrial membrane potential disruption; type: cell-based, human; details: Molt 4 cells, 0.0625, 0.125 and 0.25 μg/mL, 24 hours, dose-dependent
Method: (§2) Determination of Reactive Oxygen Species (ROS) Generation, Calcium Accumulation, and Matrix Metalloproteinase (MMP) Disruption:
(§3) MMP disruption, calcium accumulation and ROS generation were detected with the JC-1 cationic dye (5 μg/mL), the fluorescent calcium indicator (Fluo 3, […]) and the carboxy derivative of fluorescein (carboxy-H2DCFDA, […]), respectively. In brief, the treated cells were labeled with a specific fluorescent dye for 30 minutes. After labeling, cells were washed with PBS and resuspended in PBS at a concentration of 1×10^6 cells/mL before analysis via flow cytometry.

Molt 4 cells [2] = test: Intracellular calcium accumulation (Fluo 3, flow cytometry); type: cell-based, human
Method: as §2, §3
Oxidative stress is manifested by ROS overexpression and cannot be balanced by the available antioxidant machinery. Compound 1 of the present invention can damage the integrity of mitochondria, which are the major production sites of the superoxide anion, […]. The induction of the intracellular formation of ROS by compound 1 was determined with a carboxyl derivative of fluorescein, carboxy-H2DCFDA dye using flow cytometric analysis. […] Furthermore, the effect of compound 1 on the release of intracellular Ca^2+, was evaluated using fluorescent calcium indicator, Fluo 3. […] Thus, the effect of compound 1 (0.0625 μg/mL) at different time intervals (0, 3, 6 and 9 hours) on the level of nuclear DNA integrity was determined. […]

[3] = tested on: ER stress-related proteins; test: Western blot of ER stress-related proteins; type: cell-based, human; details: Molt 4 cells, time-dependent
Method: (§4) Oxidative stress is manifested by ROS overexpression and cannot be balanced by the available antioxidant machinery. Compound 1 of the present invention can damage the integrity of mitochondria, which are the major production sites of the superoxide anion, […]. The induction of the intracellular formation of ROS by compound 1 was determined with a carboxyl derivative of fluorescein, carboxy-H2DCFDA dye using flow cytometric analysis. […] In addition, ROS generation could induce ER stress leading to mitochondria-related apoptosis. To further investigate if ER stress is involved in the apoptotic effect induced by compound 1, Western blot analysis was used to determine the expression of ER stress-related proteins. […] Furthermore, the effect of compound 1 on the release of intracellular Ca^2+, was evaluated using fluorescent calcium indicator, Fluo 3. […] In FIG. 4(D), the induction of the typical executor caspases-3 and -7, and γH2AX, was also observed using Western blot analysis. To confirm the induction of DNA damage by compound 1 in Molt 4 cells, a comet assay under neutral electrophoresis condition was utilized. Thus, the effect of compound 1 (0.0625 μg/mL) at different time intervals (0, 3, 6 and 9 hours) on the level of nuclear DNA integrity was determined. […]

[4] = tested on: apoptosis-related proteins; test: Western blot of apoptosis-related proteins; type: cell-based, human; details: Molt 4 cells, time-dependent
Method: as §4

[5] = target: T2, Hsp90 protein (PDB ID: 1YET) (Homo sapiens, UniProt P07900); test: Molecular docking (Autodock 4.2)
T2 construct: Compound 1 could be docked to the N-terminal domain of Hsp90
Description: as §1

T1 sequence (P11388 whole entry): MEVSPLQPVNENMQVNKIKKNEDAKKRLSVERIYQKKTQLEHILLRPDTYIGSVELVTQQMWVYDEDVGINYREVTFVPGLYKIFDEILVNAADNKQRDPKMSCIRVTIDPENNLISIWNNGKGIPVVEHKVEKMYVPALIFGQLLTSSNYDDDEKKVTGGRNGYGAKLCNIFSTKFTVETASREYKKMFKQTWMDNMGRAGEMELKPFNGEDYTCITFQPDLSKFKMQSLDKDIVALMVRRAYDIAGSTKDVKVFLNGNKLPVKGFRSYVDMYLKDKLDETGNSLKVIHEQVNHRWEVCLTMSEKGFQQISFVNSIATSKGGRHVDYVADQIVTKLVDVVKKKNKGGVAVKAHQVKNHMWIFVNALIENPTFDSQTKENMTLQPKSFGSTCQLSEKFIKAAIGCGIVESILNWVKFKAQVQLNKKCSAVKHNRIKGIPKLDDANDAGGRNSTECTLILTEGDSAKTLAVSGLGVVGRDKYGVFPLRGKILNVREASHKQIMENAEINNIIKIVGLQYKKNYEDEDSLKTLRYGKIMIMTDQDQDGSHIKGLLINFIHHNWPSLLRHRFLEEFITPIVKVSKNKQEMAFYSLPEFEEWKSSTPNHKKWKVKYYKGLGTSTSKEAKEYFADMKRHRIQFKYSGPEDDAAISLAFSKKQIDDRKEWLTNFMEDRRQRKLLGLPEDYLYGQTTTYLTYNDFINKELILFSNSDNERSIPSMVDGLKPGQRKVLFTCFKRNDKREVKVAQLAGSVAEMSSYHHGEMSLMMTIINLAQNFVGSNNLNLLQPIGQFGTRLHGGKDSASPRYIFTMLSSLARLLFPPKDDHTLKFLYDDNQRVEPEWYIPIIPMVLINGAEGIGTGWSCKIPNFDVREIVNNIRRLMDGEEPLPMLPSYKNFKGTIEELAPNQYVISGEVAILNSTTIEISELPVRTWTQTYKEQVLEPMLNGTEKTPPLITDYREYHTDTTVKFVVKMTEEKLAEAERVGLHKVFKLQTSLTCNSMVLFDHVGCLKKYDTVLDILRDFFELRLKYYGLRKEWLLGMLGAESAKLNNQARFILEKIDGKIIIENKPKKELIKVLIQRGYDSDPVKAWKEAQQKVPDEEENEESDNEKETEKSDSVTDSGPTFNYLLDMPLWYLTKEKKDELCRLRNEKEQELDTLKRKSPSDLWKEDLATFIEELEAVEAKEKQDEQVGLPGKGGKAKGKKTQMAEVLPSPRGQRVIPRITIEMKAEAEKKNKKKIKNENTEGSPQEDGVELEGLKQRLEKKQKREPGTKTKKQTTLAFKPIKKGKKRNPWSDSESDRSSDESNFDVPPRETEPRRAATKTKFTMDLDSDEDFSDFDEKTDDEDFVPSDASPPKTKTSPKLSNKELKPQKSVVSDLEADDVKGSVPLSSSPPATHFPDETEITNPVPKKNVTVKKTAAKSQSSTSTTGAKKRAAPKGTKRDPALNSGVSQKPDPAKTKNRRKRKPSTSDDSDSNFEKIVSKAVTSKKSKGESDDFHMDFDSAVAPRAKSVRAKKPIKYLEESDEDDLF

SMILES: CC[C@@]1(C)CCC[C@]2(C)[C@H]3C[C@@H](OC(=O)C[C@@H](C)O)[C@]4(C)[C@@H](C=O)C(C(C)=O)=CC[C@H]4[C@]3(C)CC[C@@H]12 (relative stereo) [Compound 1, 12β-(3′β-hydroxybutanoyloxy)-20,24-dimethyl-24-oxo-scalara-16-en-25-al]
- Cytotoxic effect IC50, Molt 4 (Molt 4): 0.01 µg/mL
- IC50 (human topoisomerase II): 3.95 µM
- Expression of γH2AX (DNA damage biomarker) (γH2AX): significantly enhanced the expression of γH2AX in a dose-dependent manner
- Mitochondrial membrane potential (JC-1) (Molt 4 cells [1]): disruption in mitochondrial membrane potential
- Increase in intracellular Ca2+ accumulation versus MFI of control (Molt 4 cells [2]; 2 hours): 1.06 folds
- Increase in intracellular Ca2+ accumulation versus MFI of control (Molt 4 cells [2]; 18 hours): 1.06 folds
- Expression of ER stress-related proteins [3]: promoted the levels of Bip, Chop, Grp 94 and the activation and cleavage of ATF 6 but suppressed the levels of PERK and IRE 1
- Cleavage of apoptosis-related proteins [4]: PARP, caspases-8 and -9 cleavages were significantly increased in a time-dependent manner
- Potency of Hsp90 inhibition constant relative to 17-AAG [5]: > 1430 folds
